In PubChem BioAssay AID2060510 (Molecular Pharmacology Branch, DTP, NCI, 2025):

Test system: 439559-082-T-J2-PDC spheroids viability
Assay: Anticancer human tumor 439559-082-T-J2-PDC patient-derived colon adenocarcinoma cell line growth inhibition [GQUAD]
Details: for IC50: curve of first compound; for viability, T/C: stronger effect = lower value
Description: DNA G-quadruplex Stabilizer Agents in Combinations in Complex Spheroids
A high-throughput screen of multi-cell type tumor spheroids was designed to identify active combinations of DNA G-quadruplex stabilizer agents and targeted small molecules. Complex spheroids include a stromal component modeled by human endothelial cells (HUVEC) and fibroblasts modeled by human mesenchymal stem cells (MSCs). The concentration ranges selected for each drug and investigational agent were based upon clinically achievable concentrations if the clinical Cmax of the agent was known.
Compounds. The drugs and investigational agents: pidnarulex (CX-5461; NSC782164), APTO-253 (NSC789042), BRACO-19 (NSC847499), peposertib (NSC802822), ceralasertib (NSC780249), elimusertib (NSC800525), camonsertib (NSC841442), AZD-1390 (NSC803789), olaparib (NSC753686), talazoparib (NSC767125), ART-558 (NSC835418), sotorasib (NSC818433), MRTX-1133 (NSC836407), SN-38 (NSC673596), topotecan (NSC609699), etoposide (NSC141540), doxorubicin (NSC123127), gemcitabine (NSC613327), 5-fluorouracil (NSC19893), paclitaxel (NSC125973), vemurafenib (NSC761431), panobinostat (NSC761190), R-306465 (JNJ-16241199; NSC773264), adavosertib (NSC754352), TP-3654 (NSC805149), carboplatin (NSC241240), KSQ-4279 (NSC840948), and staurosporine (NSC755774) were obtained from the National Cancer Institute (NCI) Developmental Therapeutics Program Chemical Repository (34). The FDA-approved anticancer drug set is available from the NCI Developmental Therapeutics Program. […] The stock solutions were prepared in dimethyl sulfoxide (DMSO, Sigma-Aldrich, St. Louis, MO, cat. D2650) at 800-fold the tested concentration and stored at -70 degrees C prior to their use. All drugs and investigational agents were tested over a range starting from a high concentration at or near the clinical Cmax and decreasing in half-log increments. If the clinical Cmax for an agent had not been determined, the highest concentration tested was 10 microM.
2.3 Cell Culture. All cells were maintained in an incubator at 37 degrees C and 5% CO2 with 95% humidity. The PDC lines were cultured according to standard operating procedures established by the NCI PDMR. All PDCs were thawed and cultured in Matrigel-coated flasks prepared with a working solution of 1X Ham's F-12 nutrient mix, without supplementation (Invitrogen, cat. 11765054), 100 U/mL penicillin-streptomycin (Invitrogen, cat. 15140122), and 2.5% Matrigel (Corning Inc., cat. 354248) for the first three passages. The 857933-349-R-J2-PDC line was cultured in 6C/Colon 1B media, which includes advanced DMEM/F-12 (Thermo Fisher Scientific, cat. 12634028), 10 mM HEPES (Thermo Fisher Scientific, cat. 15630080), 1X GlutaMAX supplement (Thermo Fisher Scientific, cat. 35050061), 0.1 mg/mL primocin (InvivoGen, cat. ant-pm-2), 10% defined fetal bovine serum, heat inactivated (HyClone Laboratories Inc., cat. SH30070.03HI), 50% L-WRN conditioned media (ATCC, cat. CRL-3276), 1.25 mM N-Acetyl-L-cysteine (Sigma-Aldrich, cat. A9165), 10 mM nicotinamide (Sigma-Aldrich, cat. N0636), 1X B-27 supplement (Thermo Fisher Scientific, cat. 17504044), 1X N-2 supplement (Thermo Fisher Scientific, cat. 17502048), 10 microM Y-27632 dihydrochloride (Tocris Bioscience, cat. 1254), and 50 ng/mL human EGF recombinant protein (Thermo Fisher Scientific, cat. PHG0311). The 485176-168-R4-J1-PDC line was cultured in Panc media, which includes all 6C/Colon 1B media components plus 100 ng/mL human FGF-10 (Thermo Fisher Scientific, cat. 100-26), 500 nM SB-431542 (Selleckchem, cat. S1067), and gastrin (Tocris, cat. 3006).
[…]

[1] = second compound 0.0316 µM, first compound 0.0316 µM
[2] = second compound 0.0316 µM, first compound 0.1 µM
[3] = second compound 0.0316 µM, first compound 0.316 µM
[4] = second compound 0.0316 µM, first compound 1 µM
[5] = second compound 0.0316 µM, first compound 3.16 µM
[6] = second compound 0.0316 µM, first compound 10 µM
[7] = second compound 0.1 µM, first compound 0.0316 µM
[8] = second compound 0.1 µM, first compound 0.1 µM
[9] = second compound 0.1 µM, first compound 0.316 µM
[10] = second compound 0.1 µM, first compound 1 µM
[11] = second compound 0.1 µM, first compound 3.16 µM
[12] = second compound 0.1 µM, first compound 10 µM
[13] = second compound 0.316 µM, first compound 0.0316 µM
[14] = second compound 0.316 µM, first compound 0.1 µM
[15] = second compound 0.316 µM, first compound 0.316 µM
[16] = second compound 0.316 µM, first compound 1 µM
[17] = second compound 0.316 µM, first compound 3.16 µM
[18] = second compound 0.316 µM, first compound 10 µM
[19] = second compound 1 µM, first compound 0.0316 µM
[20] = second compound 1 µM, first compound 0.1 µM
[21] = second compound 1 µM, first compound 0.316 µM
[22] = second compound 1 µM, first compound 1 µM
[23] = second compound 1 µM, first compound 3.16 µM
[24] = second compound 1 µM, first compound 10 µM
[25] = second compound 3.16 µM, first compound 0.0316 µM
[26] = second compound 3.16 µM, first compound 0.1 µM
[27] = second compound 3.16 µM, first compound 0.316 µM
[28] = second compound 3.16 µM, first compound 1 µM
[29] = second compound 3.16 µM, first compound 3.16 µM
[30] = second compound 3.16 µM, first compound 10 µM
[31] = second compound 10 µM, first compound 0.0316 µM
[32] = second compound 10 µM, first compound 0.1 µM
[33] = second compound 10 µM, first compound 0.316 µM
[34] = second compound 10 µM, first compound 1 µM
[35] = second compound 10 µM, first compound 3.16 µM
[36] = second compound 10 µM, first compound 10 µM
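Note: spheroids exposed to the agents for 7 days before readout.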
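Throughout, for viability, T/C: percent of luminescence signal in DMSO vehicle wells taken as 100% viability.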

## C#Cc1c(F)ccc2cc(O)cc(-c3ncc4c(N5CC6CCC(C5)N6)nc(OCC56CCCN5CC(F)C6)nc4c3F)c12 (centres undefined) + Cc1[nH]c2ccc(F)cc2c1-c1nc2c3cccnc3c3ncccc3c2[nH]1
Second compound 0.0316 µM
  IC50: 1540 nM
Second compound 0.1 µM
  IC50: 1620 nM
Second compound 0.316 µM
  IC50: 1530 nM
Second compound 1 µM
  IC50: 1610 nM
Second compound 3.16 µM
  IC50: 709 nM
Second compound 10 µM
  IC50: 1010 nM
[1]
  viability, T/C: 97%
[2]
  viability, T/C: 104%
[3]
  viability, T/C: 87.6%
[4]
  viability, T/C: 71.9%
[5]
  viability, T/C: 13.7%
[6]
  viability, T/C: 9.66%
[7]
  viability, T/C: 112%
[8]
  viability, T/C: 96.4%
[9]
  viability, T/C: 109%
[10]
  viability, T/C: 79.5%
[11]
  viability, T/C: 9.72%
[12]
  viability, T/C: 7.59%
[13]
  viability, T/C: 105%
[14]
  viability, T/C: 97.9%
[15]
  viability, T/C: 90.8%
[16]
  viability, T/C: 74.2%
[17]
  viability, T/C: 7.82%
[18]
  viability, T/C: 7.52%
[19]
  viability, T/C: 91.5%
[20]
  viability, T/C: 91.9%
[21]
  viability, T/C: 101%
[22]
  viability, T/C: 79.9%
[23]
  viability, T/C: 8.22%
[24]
  viability, T/C: 5.9%
[25]
  viability, T/C: 72.2%
[26]
  viability, T/C: 72.5%
[27]
  viability, T/C: 70.8%
[28]
  viability, T/C: 41.1%
[29]
  viability, T/C: 5.26%
[30]
  viability, T/C: 2.89%
[31]
  viability, T/C: 85.2%
[32]
  viability, T/C: 69.3%
[33]
  viability, T/C: 93%
[34]
  viability, T/C: 50.5%
[35]
  viability, T/C: 2.77%
[36]
  viability, T/C: 3.31%

## CC1COCCN1c1cc(C2(O)CC3CCC(C2)O3)c2cnn(-c3ccn[nH]3)c2n1 (centres undefined) + CN(C)c1ccc(Nc2c3ccc(NC(=O)CCN4CCCC4)cc3nc3cc(NC(=O)CCN4CCCC4)ccc23)cc1
Second compound 0.0316 µM
  IC50: 979 nM
Second compound 0.1 µM
  IC50: 1200 nM
Second compound 0.316 µM
  IC50: 959 nM
Second compound 1 µM
  IC50: 1160 nM
Second compound 3.16 µM
  IC50: 1080 nM
Second compound 10 µM
  IC50: 999 nM
[1]
  viability, T/C: 96.5%
[2]
  viability, T/C: 72.1%
[3]
  viability, T/C: 68.3%
[4]
  viability, T/C: 49.8%
[5]
  viability, T/C: 35.8%
[6]
  viability, T/C: 25.6%
[7]
  viability, T/C: 103%
[8]
  viability, T/C: 78.2%
[9]
  viability, T/C: 74.1%
[10]
  viability, T/C: 52.6%
[11]
  viability, T/C: 33.9%
[12]
  viability, T/C: 30.4%
[13]
  viability, T/C: 94.8%
[14]
  viability, T/C: 82.3%
[15]
  viability, T/C: 64.4%
[16]
  viability, T/C: 50.3%
[17]
  viability, T/C: 37%
[18]
  viability, T/C: 30.3%
[19]
  viability, T/C: 80.6%
[20]
  viability, T/C: 86.2%
[21]
  viability, T/C: 75.7%
[22]
  viability, T/C: 52%
[23]
  viability, T/C: 36.6%
[24]
  viability, T/C: 32.4%
[25]
  viability, T/C: 85.6%
[26]
  viability, T/C: 87.5%
[27]
  viability, T/C: 75.5%
[28]
  viability, T/C: 49%
[29]
  viability, T/C: 39.9%
[30]
  viability, T/C: 28.9%
[31]
  viability, T/C: 94.9%
[32]
  viability, T/C: 76.9%
[33]
  viability, T/C: 79.1%
[34]
  viability, T/C: 46%
[35]
  viability, T/C: 35%
[36]
  viability, T/C: 25.4%
